In ChEMBL document CHEMBL1124277, “Leukotriene receptor antagonists. 4. Synthesis and leukotriene D4/E4 receptor antagonist activity of 4-(alkyl)acetophenone derivatives” (J Med Chem, 1988):

Key:
[1] = molecular target: T1, Cysteinyl leukotriene receptor 1 (Cavia porcellus) (UniProt Q2NNR5); assay: Dissociation constant for leukotriene antagonist (compound) on Cysteinyl leukotriene D4 receptor in guinea pig ileum was determined; format: functional, tissue-based
T1 sequence (whole entry): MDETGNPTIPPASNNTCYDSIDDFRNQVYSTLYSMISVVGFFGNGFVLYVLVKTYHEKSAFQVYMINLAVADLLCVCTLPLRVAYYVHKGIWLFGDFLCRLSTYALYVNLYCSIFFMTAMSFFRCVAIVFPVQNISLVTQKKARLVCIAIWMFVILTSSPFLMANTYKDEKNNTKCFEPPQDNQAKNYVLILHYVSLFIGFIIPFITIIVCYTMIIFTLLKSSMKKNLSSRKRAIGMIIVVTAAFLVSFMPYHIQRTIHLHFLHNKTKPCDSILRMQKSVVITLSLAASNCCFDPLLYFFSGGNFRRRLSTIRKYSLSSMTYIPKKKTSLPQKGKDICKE

[2] = molecular target: T1, Cysteinyl leukotriene receptor 1 (Cavia porcellus); assay: Dissociation constant for leukotriene antagonist (compound) on LTE4 receptor in guinea pig ileum was determined; format: functional, tissue-based

pKB [1]	pKB [2]	SMILES
6.93	7.21	CCCc1c(OCCCCc2nnn[nH]2)ccc(C(C)=O)c1O
7.08	7.5	CCCc1c(CCCCCc2nnn[nH]2)ccc(C(C)=O)c1O
6.25	6.67	CCCc1c(CCCCc2nnn[nH]2)ccc(C(C)=O)c1O
5.47	5.64	CCCc1c(OCCCc2nnn[nH]2)ccc(C(C)=O)c1O
